Source: US9328070B2, “Ethynyl derivatives” (Hoffmann-La Roche Inc., priority 2012, dated 2016)

Experiments:
human mGlu5a receptor [1] = biological target: T1, human mGlu5a receptor (Homo sapiens (Human), UniProt P41594); experiment: Intracellular Ca2+ mobilization assay (mGlu5 PAM assay); type: cell-based; conditions: for EC50 (nM) mGlu5 PAM assay / mGlu5 PAM EC50 [nM]: HEK-293 cells, human mGlu5a, glutamate at EC20; for Activity profile: PAM = positive allosteric modulator, NAM = negative allosteric modulator; for Efficacy [%]: maximal response in % of the maximal stimulatory effect of saturating L-glutamate
Experimental: A monoclonal HEK-293 cell line stably transfected with a cDNA encoding for the human mGlu5a receptor was generated; for the work with mGlu5 Positive Allosteric Modulators (PAMs), a cell line with low receptor expression levels and low constitutive receptor activity was selected to allow the differentiation of agonistic versus PAM activity. Cells were cultured according to standard protocols (Freshney, 2000) in Dulbecco's Modified Eagle Medium with high glucose supplemented with 1 mM glutamine, 10% (vol/vol) heat-inactivated bovine calf serum, Penicillin/Streptomycin, 50 μg/ml hygromycin and 15 μg/ml blasticidin (all cell culture reagents and antibiotics from Invitrogen, Basel, Switzerland).
About 24 hrs before an experiment, 5×10^4 cells/well were seeded in poly-D-lysine coated, black/clear-bottomed 96-well plates. The cells were loaded with 2.5 μM Fluo-4AM in loading buffer (1×HBSS, 20 mM HEPES) for 1 hr at 37° C. and washed five times with loading buffer. The cells were transferred into a Functional Drug Screening System 7000 (Hamamatsu, Paris, France), and 11 half logarithmic serial dilutions of test compound at 37° C. were added and the cells were incubated for 10-30 min. with on-line recording of fluorescence. Following this pre-incubation step, the agonist L-glutamate was added to the cells at a concentration corresponding to EC20 (typically around 80 μM) with on-line recording of fluorescence; in order to account for day-to-day variations in the responsiveness of cells, the EC20 of glutamate was determined immediately ahead of each experiment by recording of a full dose-response curve of glutamate.
Responses were measured as peak increase in fluorescence minus basal (i.e. fluorescence without addition of L-glutamate), normalized to the maximal stimulatory effect obtained with saturating concentrations of L-glutamate. Graphs were plotted with the % maximal stimulatory using XLfit, a curve fitting program that iteratively plots the data using Levenburg Marquardt algorithm. The single site competition analysis equation used was y=A+((B−A)/(1+((x/C)D))), where y is the % maximal stimulatory effect, A is the minimum y, B is the maximum y, C is the EC50, x is the log 10 of the concentration of the competing compound and D is the slope of the curve (the Hill Coefficient). From these curves the EC50 (concentration at which half maximal stimulation was achieved), the Hill coefficient as well as the maximal response in % of the maximal stimulatory effect obtained with saturating concentrations of L-glutamate were calculated.
A depression of the signal observed after addition of the EC20 concentration of L-glutamate was indicative of an inhibitory activity of the test compound.

human mGlu5a receptor [2] = biological target: T1, human mGlu5a receptor; experiment: MPEP binding assay ([3H]MPEP displacement); conditions: [3H]MPEP 2 nM, 1 h at 4° C., EBNA cell membranes
Experimental: For binding experiments, cDNA encoding human mGlu 5a receptor was transiently transfected into EBNA cells using a procedure described by Schlaeger and Christensen [Cytotechnology 15:1-13 (1998)]. Cell membrane homogenates were stored at −80° C. until the day of assay where upon they were thawed and resuspended and polytronised in 15 mM Tris-HCl, 120 mM NaCl, 100 mM KCl, 25 mM CaCl2, 25 mM MgCl2 binding buffer at pH 7.4 to a final assay concentration of 20 μg protein/well.
Saturation isotherms were determined by addition of twelve [^3H]MPEP concentrations (0.04-100 nM) to these membranes (in a total volume of 200 μl) for 1 h at 4° C. Competition experiments were performed with a fixed concentration of [^3H]MPEP (2 nM) and IC50 values of test compounds evaluated using 11 concentrations (0.3-10,000 nM). Incubations were performed for 1 h at 4° C.
At the end of the incubation, membranes were filtered onto unifilter (96-well white microplate with bonded GF/C filter preincubated 1 h in 0.1% PEI in wash buffer, Packard BioScience, Meriden, Conn.) with a Filtermate 96 harvester (Packard BioScience) and washed 3 times with cold 50 mM Tris-HCl, pH 7.4 buffer. Nonspecific binding was measured in the presence of 10 μM MPEP. The radioactivity on the filter was counted (3 min) on a Packard Top-count microplate scintillation counter with quenching correction after addition of 45 μl of microscint 40 (Canberra Packard S.A., Zurich, Switzerland) and shaking for 20 min.

T1 sequence (P41594 other isoform, or with tags, fused parts or gaps): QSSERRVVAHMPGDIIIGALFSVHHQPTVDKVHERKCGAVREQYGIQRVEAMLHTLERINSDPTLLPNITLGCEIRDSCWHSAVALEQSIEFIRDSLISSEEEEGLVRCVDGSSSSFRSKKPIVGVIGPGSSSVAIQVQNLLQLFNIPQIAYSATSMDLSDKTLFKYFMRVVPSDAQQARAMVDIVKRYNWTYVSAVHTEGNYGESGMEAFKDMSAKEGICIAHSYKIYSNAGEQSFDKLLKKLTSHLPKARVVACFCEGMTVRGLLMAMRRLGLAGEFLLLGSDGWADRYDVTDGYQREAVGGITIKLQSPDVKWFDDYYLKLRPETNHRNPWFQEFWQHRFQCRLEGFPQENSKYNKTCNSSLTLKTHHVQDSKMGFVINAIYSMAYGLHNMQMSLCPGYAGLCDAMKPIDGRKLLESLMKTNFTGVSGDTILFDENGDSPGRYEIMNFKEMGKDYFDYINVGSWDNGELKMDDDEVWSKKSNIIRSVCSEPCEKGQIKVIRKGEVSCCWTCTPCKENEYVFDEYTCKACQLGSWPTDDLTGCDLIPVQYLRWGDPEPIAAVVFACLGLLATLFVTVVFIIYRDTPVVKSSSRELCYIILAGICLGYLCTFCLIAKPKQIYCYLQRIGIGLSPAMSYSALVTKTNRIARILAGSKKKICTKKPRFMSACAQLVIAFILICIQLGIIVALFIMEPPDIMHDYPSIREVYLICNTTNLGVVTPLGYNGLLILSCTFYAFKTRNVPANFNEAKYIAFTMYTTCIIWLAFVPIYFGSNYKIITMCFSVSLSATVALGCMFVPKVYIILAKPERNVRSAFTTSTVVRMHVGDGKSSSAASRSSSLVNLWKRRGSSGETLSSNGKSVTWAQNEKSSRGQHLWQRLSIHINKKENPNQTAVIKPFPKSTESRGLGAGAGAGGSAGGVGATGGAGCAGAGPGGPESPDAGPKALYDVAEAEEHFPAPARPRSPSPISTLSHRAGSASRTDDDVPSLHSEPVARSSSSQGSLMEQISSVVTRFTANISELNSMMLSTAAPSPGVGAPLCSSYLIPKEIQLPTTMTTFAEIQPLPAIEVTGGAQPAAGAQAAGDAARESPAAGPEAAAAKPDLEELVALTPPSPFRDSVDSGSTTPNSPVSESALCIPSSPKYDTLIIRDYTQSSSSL

SMILES	Activity profile (human mGlu5a receptor [1])	Ki (human mGlu5a receptor [2]) [nM]	Efficacy [%] (human mGlu5a receptor [1])	other results
CN(C(=O)c1ccc(C#Cc2ccnc(Cl)c2)cn1)C(C)(C)C [Example 1, 5-(2-Chloro-pyridin-4-ylethynyl)-pyridine-2-carboxylic acid tert-butyl-methyl-amide]	NAM	28		EC50 (nM) mGlu5 PAM assay (human mGlu5a receptor [1]): inactive
CN(C(=O)c1ccc(C#Cc2cccc(Cl)c2)cn1)C(C)(C)C [Example 2, 5-(3-Chloro-phenylethynyl)-pyridine-2-carboxylic acid tert-butyl-methyl-amide]	NAM	15		EC50 (nM) mGlu5 PAM assay (human mGlu5a receptor [1]): inactive
CN(C(=O)c1ccc(C#Cc2cccc(F)c2)cn1)C(C)(C)C [Reference compound 1, reference compound]	PAM	29		
CN(C(=O)c1ccc(C#Cc2cncc(Cl)c2)cn1)C(C)(C)C [Reference compound 2, reference compound]	PAM	42		
CC(C)(NC(=O)c1ccc(C#Cc2ccnc(Cl)c2)cn1)C(F)(F)F [Reference compound 3, reference compound]	PAM	58		
CN(C(=O)c1ccc(C#Cc2cccc(F)c2)cn1)C(C)(C)C [drawing 3]			64	
CN(C(=O)c1ccc(C#Cc2ccnc(Cl)c2)cn1)C(C)(C)C [drawing 6]				mGlu5 PAM EC50 [nM] (human mGlu5a receptor [1]): Inactive
CN(C(=O)c1ccc(C#Cc2cccc(Cl)c2)cn1)C(C)(C)C [drawing 7]				mGlu5 PAM EC50 [nM] (human mGlu5a receptor [1]): inactive

Continued, in another order:

Activity profile (human mGlu5a receptor [1])	Ki (human mGlu5a receptor [2]) [nM]	Efficacy [%] (human mGlu5a receptor [1])	SMILES	other results
		33	CN(C(=O)c1ccc(C#Cc2cncc(Cl)c2)cn1)C(C)(C)C [drawing 4]	
		80	CC(C)(NC(=O)c1ccc(C#Cc2ccnc(Cl)c2)cn1)C(F)(F)F [drawing 5]	
